How the values were obtained:
Experiment in all cases: relative viability (nuclei count vs DMSO), 5 days (fraction); higher = more cells survive
[1] = test system: NCI-H520
How it was run: (§1)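 Dosing by pin tool came one day after lung cancer cell lines were seeded in 1536-well plates, using either one drug or a fixed anchor-drug dose plus five library-drug doses (not always all listed) in √10 steps. After 5 days, nuclei were counted on 4× images. Relative viability is treated-well nuclei count divided by vehicle-well nuclei count, and values are medians of duplicate plates.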

[2] = test system: NCI-H3122
How it was run: as §1

[3] = test system: NCI-H838
How it was run: as §1

[4] = test system: NCI-H1944
How it was run: as §1

[5] = test system: SW 900
How it was run: as §1

[6] = test system: NCI-H1666
How it was run: as §1

[7] = test system: NCI-H322M
How it was run: as §1

[8] = test system: NCI-H441
How it was run: as §1

[9] = test system: NCI-H1355
How it was run: as §1

[10] = test system: NCI-H2085
How it was run: as §1

[11] = test system: SW 1573
How it was run: as §1

[12] = test system: NCI-H460
How it was run: as §1

[13] = test system: NCI-H2347
How it was run: as §1

CCCCCCCCCCCC1=C(O)C(=O)C=C(O)C1=O [Embelin] + CCNC(=O)c1noc(-c2cc(C(C)C)c(O)cc2O)c1-c1ccc(CN2CCOCC2)cc1 [Luminespib] (partner 0.01 µM)
relative viability ([1]; first compound 0.08 µM): 0.224
relative viability ([1]; first compound 0.8 µM): 0.29
relative viability ([1]; first compound 2.53 µM): 0.183
relative viability ([1]; first compound 8 µM): 0.235
relative viability ([2]; first compound 0.08 µM): 0.068
relative viability ([2]; first compound 0.8 µM): 0.0941
relative viability ([2]; first compound 2.53 µM): 0.0799
relative viability ([2]; first compound 8 µM): 0.0894
relative viability ([3]; first compound 0.08 µM): 0.292
relative viability ([3]; first compound 0.8 µM): 0.449
relative viability ([3]; first compound 2.53 µM): 0.362
relative viability ([3]; first compound 8 µM): 0.244
relative viability ([4]; first compound 0.08 µM): 0.726
relative viability ([4]; first compound 0.8 µM): 0.849
relative viability ([4]; first compound 2.53 µM): 0.882
relative viability ([4]; first compound 8 µM): 0.78
relative viability ([5]; first compound 0.08 µM): 0.196
relative viability ([5]; first compound 0.8 µM): 0.138
relative viability ([5]; first compound 2.53 µM): 0.188
relative viability ([5]; first compound 8 µM): 0.18
relative viability ([6]; first compound 0.08 µM): 1.04
relative viability ([6]; first compound 0.8 µM): 1.01
relative viability ([6]; first compound 2.53 µM): 1.04
relative viability ([6]; first compound 8 µM): 1.01
relative viability ([7]; first compound 0.08 µM): 0.951
relative viability ([7]; first compound 0.8 µM): 1.04
relative viability ([7]; first compound 2.53 µM): 1.19
relative viability ([7]; first compound 8 µM): 0.83
relative viability ([8]; first compound 0.08 µM): 0.32
relative viability ([8]; first compound 0.8 µM): 0.294
relative viability ([8]; first compound 2.53 µM): 0.332
relative viability ([8]; first compound 8 µM): 0.33
relative viability ([9]; first compound 0.08 µM): 0.764
relative viability ([9]; first compound 0.8 µM): 0.847
relative viability ([9]; first compound 2.53 µM): 0.837
relative viability ([9]; first compound 8 µM): 0.657
relative viability ([10]; first compound 0.08 µM): 0.458
relative viability ([10]; first compound 0.8 µM): 0.463
relative viability ([10]; first compound 2.53 µM): 0.469
relative viability ([10]; first compound 8 µM): 0.4
relative viability ([11]; first compound 0.08 µM): 0.256
relative viability ([11]; first compound 0.8 µM): 0.341
relative viability ([11]; first compound 2.53 µM): 0.252
relative viability ([11]; first compound 8 µM): 0.216
relative viability ([12]; first compound 0.08 µM): 0.0322
relative viability ([12]; first compound 0.8 µM): 0.0396
relative viability ([12]; first compound 2.53 µM): 0.0367
relative viability ([12]; first compound 8 µM): 0.029
relative viability ([13]; first compound 0.08 µM): 0.73
relative viability ([13]; first compound 0.8 µM): 0.489

— the supplement of paper PMC10307832
